Assay results published in patent US20060025346A1, “Permeability enhancer” (priority 2004, published 2006).
Entries after “also recorded” stand apart in the source; their conditions may differ.

Tests used:
Caco-2 cell monolayer = details: literature reports; cited from earlier work

CCCCCCCCCC(=O)[O-].[Na+] [sodium caprate]
permeability enhancing effect on high molecular weight model substance FD-10 (relative Papp) (MDCK cells): nonspecifically increased the permeability; also recorded: marked permeability enhancing effect | permeability enhancing effect on low molecular weight model substance Flu (relative Papp) (MDCK cells): nonspecifically increased the permeability; also recorded: marked permeability enhancing effect | permeability enhancing effect on low molecular weight model substance LY (relative Papp) (MDCK cells): nonspecifically increased the permeability; also recorded: marked permeability enhancing effect | side effects / cell damage due to relatively strong ability to open tight junctions (Caco-2 cell monolayer): risk of cell damage have been observed
